Data reported in the NIST ThermoML archive (doi:10.1016/j.fluid.2004.11.019).

Settings: Liquid

CCO [ethanol]
mass density [kg/m3]
Settings	100 kPa	10000 kPa	20000 kPa	30000 kPa	40000 kPa
298.15 K	785.7	794	801.9	808.9	815.7
323.15 K	763.7	773.4	782.3	790.3	797.7
348.15 K	739.4	751.2	761.2	770.3	778.6
